# From PubChem BioAssay (NCI)
#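 Growth conditions: 96-well plates. Treatment: test compound, 48 hours, 5 concentrations. Analysis: linear interpolation between bracketing concentrations; unreached endpoints set to highest concentration. At the TGI there is no net growth.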
# Experiments:
# Assay in all cases: DTP human tumour cell line panel, 48 h
# 786-0 renal = test system: 786-0 renal
# A498 renal = test system: A498 renal
# A549 NSCLC = test system: A549 NSCLC
# ACHN renal = test system: ACHN renal
# CAKI-1 renal = test system: CAKI-1 renal
# CCRF-CEM leukemia = test system: CCRF-CEM leukemia
# COLO 205 colon = test system: COLO 205 colon
# DU-145 prostate = test system: DU-145 prostate
# EKVX NSCLC = test system: EKVX NSCLC
# HCC-2998 colon = test system: HCC-2998 colon
# HCT-116 colon = test system: HCT-116 colon
# HCT-15 colon = test system: HCT-15 colon
# HL-60(TB) leukemia = test system: HL-60(TB) leukemia
# HOP-62 NSCLC = test system: HOP-62 NSCLC
# HOP-92 NSCLC = test system: HOP-92 NSCLC
# HS 578T breast = test system: HS 578T breast
# HT29 colon = test system: HT29 colon
# IGROV1 ovarian = test system: IGROV1 ovarian
# K-562 leukemia = test system: K-562 leukemia
# KM12 colon = test system: KM12 colon
# LOX IMVI melanoma = test system: LOX IMVI melanoma
# M14 melanoma = test system: M14 melanoma
# MALME-3M melanoma = test system: MALME-3M melanoma
# MDA-MB-231 breast = test system: MDA-MB-231 breast
# MDA-MB-435 = test system: MDA-MB-435
# MDA-N = test system: MDA-N
# MOLT-4 leukemia = test system: MOLT-4 leukemia
# NCI-H226 lung = test system: NCI-H226 lung
# NCI-H23 lung = test system: NCI-H23 lung
# NCI-H460 lung = test system: NCI-H460 lung
# NCI-H522 lung = test system: NCI-H522 lung
# NCI/ADR-RES ovarian = test system: NCI/ADR-RES ovarian
# OVCAR-3 ovarian = test system: OVCAR-3 ovarian
# OVCAR-4 ovarian = test system: OVCAR-4 ovarian
# OVCAR-5 ovarian = test system: OVCAR-5 ovarian
# OVCAR-8 ovarian = test system: OVCAR-8 ovarian
# PC-3 prostate = test system: PC-3 prostate
# RPMI-8226 leukemia = test system: RPMI-8226 leukemia
# RXF 393 renal = test system: RXF 393 renal
# SF-268 CNS = test system: SF-268 CNS
# SF-295 CNS = test system: SF-295 CNS
# SF-539 CNS = test system: SF-539 CNS
# SK-MEL-2 melanoma = test system: SK-MEL-2 melanoma
# SK-MEL-28 melanoma = test system: SK-MEL-28 melanoma
# SK-MEL-5 melanoma = test system: SK-MEL-5 melanoma
# SK-OV-3 ovarian = test system: SK-OV-3 ovarian
# SN12C renal = test system: SN12C renal
# SNB-19 CNS = test system: SNB-19 CNS
# SNB-75 CNS = test system: SNB-75 CNS
# SR leukemia = test system: SR leukemia
# SW-620 colon = test system: SW-620 colon
# T-47D breast = test system: T-47D breast
# U251 CNS = test system: U251 CNS
# UACC-257 melanoma = test system: UACC-257 melanoma
# UACC-62 melanoma = test system: UACC-62 melanoma
# UO-31 renal = test system: UO-31 renal
# BT-549 breast = test system: BT-549 breast
# TK-10 renal = test system: TK-10 renal
# MCF7 breast = test system: MCF7 breast
smiles,measurement,setting,value
O=[N+]([O-])c1cc(-c2nnc(C34CC5CC(CC(C5)C3)C4)o2)cc([N+](=O)[O-])c1,TGI,786-0 renal,> 100 µM
same,TGI,A498 renal,> 100 µM
same,TGI,A549 NSCLC,> 100 µM
same,TGI,ACHN renal,> 100 µM
same,TGI,CAKI-1 renal,> 100 µM
same,TGI,CCRF-CEM leukemia,> 100 µM
same,TGI,COLO 205 colon,42.4 µM
same,TGI,DU-145 prostate,> 100 µM
same,TGI,EKVX NSCLC,> 100 µM
same,TGI,HCC-2998 colon,> 100 µM
same,TGI,HCT-116 colon,> 100 µM
same,TGI,HCT-15 colon,> 100 µM
same,TGI,HL-60(TB) leukemia,> 100 µM
same,TGI,HOP-62 NSCLC,> 100 µM
same,TGI,HOP-92 NSCLC,94.6 µM
same,TGI,HS 578T breast,> 100 µM
same,TGI,HT29 colon,32.2 µM
same,TGI,IGROV1 ovarian,> 100 µM
same,TGI,K-562 leukemia,> 100 µM
same,TGI,KM12 colon,> 100 µM
same,TGI,LOX IMVI melanoma,> 100 µM
same,TGI,M14 melanoma,70.4 µM
same,TGI,MALME-3M melanoma,> 100 µM
same,TGI,MDA-MB-231 breast,> 100 µM
same,TGI,MDA-MB-435,77 µM
same,TGI,MDA-N,> 100 µM
same,TGI,MOLT-4 leukemia,> 100 µM
same,TGI,NCI-H226 lung,> 100 µM
same,TGI,NCI-H23 lung,> 100 µM
same,TGI,NCI-H460 lung,> 100 µM
same,TGI,NCI-H522 lung,> 100 µM
same,TGI,NCI/ADR-RES ovarian,> 100 µM
same,TGI,OVCAR-3 ovarian,> 100 µM
same,TGI,OVCAR-4 ovarian,> 100 µM
same,TGI,OVCAR-5 ovarian,> 100 µM
same,TGI,OVCAR-8 ovarian,> 100 µM
same,TGI,PC-3 prostate,> 100 µM
same,TGI,RPMI-8226 leukemia,> 100 µM
same,TGI,RXF 393 renal,> 100 µM
same,TGI,SF-268 CNS,> 100 µM
same,TGI,SF-295 CNS,> 100 µM
same,TGI,SF-539 CNS,> 100 µM
same,TGI,SK-MEL-2 melanoma,> 100 µM
same,TGI,SK-MEL-28 melanoma,> 100 µM
same,TGI,SK-MEL-5 melanoma,44.8 µM
same,TGI,SK-OV-3 ovarian,> 100 µM
same,TGI,SN12C renal,> 100 µM
same,TGI,SNB-19 CNS,> 100 µM
same,TGI,SNB-75 CNS,> 100 µM
same,TGI,SR leukemia,> 100 µM
same,TGI,SW-620 colon,37.8 µM
same,TGI,T-47D breast,> 100 µM
same,TGI,U251 CNS,> 100 µM
same,TGI,UACC-257 melanoma,> 100 µM
same,TGI,UACC-62 melanoma,> 100 µM
same,TGI,UO-31 renal,> 100 µM
CC(CO)(CBr)COC(=O)c1cc(Br)c(N)c(Br)c1 (centres undefined),TGI,786-0 renal,> 100 µM
same,TGI,A498 renal,> 100 µM
same,TGI,A549 NSCLC,> 100 µM
same,TGI,ACHN renal,> 100 µM
same,TGI,BT-549 breast,> 100 µM
same,TGI,CAKI-1 renal,> 100 µM
same,TGI,CCRF-CEM leukemia,> 100 µM
same,TGI,COLO 205 colon,> 100 µM
same,TGI,DU-145 prostate,> 100 µM
same,TGI,EKVX NSCLC,> 100 µM
same,TGI,HCC-2998 colon,> 100 µM
same,TGI,HCT-116 colon,> 100 µM
same,TGI,HCT-15 colon,> 100 µM
same,TGI,HL-60(TB) leukemia,> 100 µM
same,TGI,HOP-62 NSCLC,> 100 µM
same,TGI,HOP-92 NSCLC,45.9 µM
same,TGI,HT29 colon,> 100 µM
same,TGI,IGROV1 ovarian,> 100 µM
same,TGI,K-562 leukemia,> 100 µM
same,TGI,KM12 colon,> 100 µM
same,TGI,LOX IMVI melanoma,> 100 µM
same,TGI,M14 melanoma,> 100 µM
same,TGI,MDA-MB-231 breast,> 100 µM
same,TGI,MDA-MB-435,> 100 µM
same,TGI,MDA-N,> 100 µM
same,TGI,MOLT-4 leukemia,> 100 µM
same,TGI,NCI-H226 lung,> 100 µM
same,TGI,NCI-H23 lung,> 100 µM
same,TGI,NCI/ADR-RES ovarian,> 100 µM
same,TGI,OVCAR-3 ovarian,> 100 µM
same,TGI,OVCAR-4 ovarian,> 100 µM
same,TGI,OVCAR-5 ovarian,> 100 µM
same,TGI,OVCAR-8 ovarian,> 100 µM
same,TGI,PC-3 prostate,> 100 µM
same,TGI,RPMI-8226 leukemia,> 100 µM
same,TGI,SF-268 CNS,> 100 µM
same,TGI,SF-295 CNS,> 100 µM
same,TGI,SF-539 CNS,> 100 µM
same,TGI,SK-MEL-2 melanoma,> 100 µM
same,TGI,SK-MEL-28 melanoma,> 100 µM
same,TGI,SK-MEL-5 melanoma,> 100 µM
same,TGI,SK-OV-3 ovarian,> 100 µM
same,TGI,SN12C renal,> 100 µM
same,TGI,SNB-19 CNS,> 100 µM
same,TGI,SR leukemia,> 100 µM
same,TGI,SW-620 colon,> 100 µM
same,TGI,T-47D breast,> 100 µM
same,TGI,TK-10 renal,> 100 µM
same,TGI,U251 CNS,> 100 µM
same,TGI,UACC-257 melanoma,> 100 µM
same,TGI,UACC-62 melanoma,> 100 µM
same,TGI,UO-31 renal,11.3 µM
CSc1nc2c(c(=O)[nH]1)N=C(c1ccc(Cl)cc1)CC(c1ccccc1)N2 (centres undefined),TGI,786-0 renal,30 µM
same,TGI,A498 renal,> 100 µM
same,TGI,A549 NSCLC,26.4 µM
same,TGI,ACHN renal,29 µM
same,TGI,BT-549 breast,45.4 µM
same,TGI,CAKI-1 renal,34.2 µM
same,TGI,CCRF-CEM leukemia,37.4 µM
same,TGI,COLO 205 colon,34 µM
same,TGI,DU-145 prostate,42.1 µM
same,TGI,EKVX NSCLC,40.9 µM
same,TGI,HCC-2998 colon,28.8 µM
same,TGI,HCT-116 colon,51.4 µM
same,TGI,HL-60(TB) leukemia,39.6 µM
same,TGI,HOP-62 NSCLC,31.7 µM
same,TGI,HOP-92 NSCLC,38.7 µM
same,TGI,HT29 colon,31.4 µM
same,TGI,IGROV1 ovarian,29.5 µM
same,TGI,K-562 leukemia,44.9 µM
same,TGI,KM12 colon,30 µM
same,TGI,LOX IMVI melanoma,44.2 µM
same,TGI,M14 melanoma,29.9 µM
same,TGI,MALME-3M melanoma,42.8 µM
same,TGI,MCF7 breast,33.2 µM
same,TGI,MDA-MB-231 breast,30.8 µM
same,TGI,MDA-MB-435,38.3 µM
same,TGI,MDA-N,31.4 µM
same,TGI,MOLT-4 leukemia,61.8 µM
same,TGI,NCI-H226 lung,58.7 µM
same,TGI,NCI-H23 lung,30 µM
same,TGI,NCI-H522 lung,29.4 µM
same,TGI,NCI/ADR-RES ovarian,29.5 µM
same,TGI,OVCAR-3 ovarian,28.5 µM
same,TGI,OVCAR-4 ovarian,23.6 µM
same,TGI,OVCAR-5 ovarian,34.2 µM
same,TGI,OVCAR-8 ovarian,31.4 µM
same,TGI,PC-3 prostate,45.3 µM
same,TGI,RPMI-8226 leukemia,40.1 µM
same,TGI,RXF 393 renal,34.4 µM
same,TGI,SF-295 CNS,32.6 µM
same,TGI,SF-539 CNS,33.3 µM
same,TGI,SK-MEL-2 melanoma,31.7 µM
same,TGI,SK-MEL-28 melanoma,32.4 µM
same,TGI,SK-MEL-5 melanoma,26.1 µM
same,TGI,SN12C renal,30 µM
same,TGI,SNB-19 CNS,29.9 µM
same,TGI,SNB-75 CNS,24.7 µM
same,TGI,SR leukemia,> 100 µM
same,TGI,SW-620 colon,39.1 µM
same,TGI,U251 CNS,39.3 µM
same,TGI,UACC-257 melanoma,34.3 µM
same,TGI,UO-31 renal,26.8 µM
Cc1ccc2[nH]c3c(c2c1)CCC/C3=N/N=C(N)N,TGI,A498 renal,45.2 µM
same,TGI,ACHN renal,3.64 µM
same,TGI,BT-549 breast,41.1 µM
same,TGI,CAKI-1 renal,2.94 µM
same,TGI,COLO 205 colon,3.13 µM
same,TGI,DU-145 prostate,3.34 µM
same,TGI,EKVX NSCLC,6.78 µM
same,TGI,HCC-2998 colon,3.3 µM
same,TGI,HL-60(TB) leukemia,> 100 µM
same,TGI,HOP-92 NSCLC,6.5 µM
same,TGI,HT29 colon,3.39 µM
same,TGI,IGROV1 ovarian,3.54 µM
same,TGI,K-562 leukemia,5 µM
same,TGI,KM12 colon,3.16 µM
same,TGI,LOX IMVI melanoma,4.39 µM
same,TGI,M14 melanoma,3.15 µM
same,TGI,MALME-3M melanoma,5.45 µM
same,TGI,MDA-MB-231 breast,3.04 µM
same,TGI,MDA-N,2.89 µM
same,TGI,NCI-H226 lung,10.1 µM
same,TGI,NCI-H23 lung,9.97 µM
same,TGI,NCI-H460 lung,2.89 µM
same,TGI,OVCAR-3 ovarian,8.21 µM
same,TGI,OVCAR-4 ovarian,11.4 µM
same,TGI,OVCAR-5 ovarian,5.53 µM
same,TGI,OVCAR-8 ovarian,4.49 µM
same,TGI,PC-3 prostate,10.2 µM
same,TGI,RPMI-8226 leukemia,5.12 µM
same,TGI,RXF 393 renal,3.95 µM
same,TGI,SK-MEL-2 melanoma,3.41 µM
same,TGI,SK-MEL-5 melanoma,3.4 µM
same,TGI,SK-OV-3 ovarian,38.3 µM
same,TGI,SN12C renal,3.05 µM
same,TGI,SNB-19 CNS,4.76 µM
same,TGI,SNB-75 CNS,4.54 µM
same,TGI,SR leukemia,5.64 µM
same,TGI,SW-620 colon,> 100 µM
same,TGI,U251 CNS,4.72 µM
same,TGI,UACC-257 melanoma,7.41 µM
same,TGI,UACC-62 melanoma,4.73 µM
